How the values were obtained:
Test in all cases: Kinase selectivity profiling
Format in all cases: biochemical
NEK2a = NEK2a (Homo sapiens, UniProt P51955); settings: 1 µM, assay duplicates
Procedure: (§1) [20] Kinase selectivity profiling for compounds 7a, 7d, 14d and 14g was carried out at the International Centre for Protein Kinase Profiling, Division of Signal Transduction Therapy, University of Dundee.
(§2) Table S1: Kinase selectivity profiling of compounds 7a and 7d in a 102-kinase panel screened at a concentration of 1 µM.
(§3) Table S2: Kinase selectivity profiling of compounds 14d and 14g in a 105-kinase panel screened at a concentration of 1 µM.

HIPK3 = HIPK3 (Homo sapiens, UniProt Q9H422); settings: 1 µM, assay duplicates
Procedure: as §1, §2, §3

EPH-A4 = EPH-A4 (Homo sapiens, UniProt P54764); settings: 1 µM, assay duplicates
Procedure: as §1, §2, §3

YES1 = YES1 (Homo sapiens, UniProt P07947); settings: 1 µM, assay duplicates
Procedure: as §1, §2, §3

PKA = PKA (Homo sapiens, UniProt P17612); settings: 1 µM, assay duplicates
Procedure: as §1, §2, §3

IKKe = IKKe (Homo sapiens, UniProt Q14164); settings: 1 µM, assay duplicates
Procedure: as §1, §2, §3

CDK2-Cyclin A = CDK2-Cyclin A (Homo sapiens, UniProt P24941); settings: 1 µM, assay duplicates
Procedure: as §1, §2, §3

PLK1 = PLK1 (Homo sapiens, UniProt P53350); settings: 1 µM, assay duplicates
Procedure: as §1, §2, §3

TrkA = TrkA (Homo sapiens, UniProt P04629); settings: for TrkA inhibition: 1 μM; for TrkA % activity remaining: 1 µM, assay duplicates
Procedure: as §1, §2, §3

MINK1 = MINK1 (Homo sapiens, UniProt Q8N4C8); settings: 1 µM, assay duplicates
Procedure: as §1, §2, §3

TAK1 = TAK1 (Homo sapiens, UniProt O43318); settings: 1 µM, assay duplicates
Procedure: as §1, §2, §3

PAK5 = PAK5 (Homo sapiens, UniProt Q9P286); settings: 1 µM, assay duplicates
Procedure: as §1, §2, §3

IGF-1R = IGF-1R (Homo sapiens, UniProt P08069); settings: 1 µM, assay duplicates
Procedure: as §1, §2, §3

CK1 = CK1 (Homo sapiens, UniProt P48730); settings: 1 µM, assay duplicates
Procedure: as §1, §2, §3

VEG-FR = VEG-FR (Homo sapiens, UniProt P17948); settings: for VEGFR inhibition: 1 μM; for VEG-FR % activity remaining: 1 µM, assay duplicates
Procedure: as §1, §2, §3

CAMK1 = CAMK1 (Homo sapiens, UniProt Q14012); settings: 1 µM, assay duplicates
Procedure: as §1, §2, §3

MKK1 = MKK1 (Homo sapiens, UniProt Q02750); settings: 1 µM, assay duplicates
Procedure: as §1, §2, §3

PAK4 = PAK4 (Homo sapiens, UniProt O96013); settings: 1 µM, assay duplicates
Procedure: as §1, §2, §3

DYRK3 = DYRK3 (Homo sapiens, UniProt O43781); settings: 1 µM, assay duplicates
Procedure: as §1, §2, §3

p38a MAPK = p38a MAPK (Homo sapiens, UniProt Q16539); settings: 1 µM, assay duplicates
Procedure: as §1, §2, §3

CHK1 = CHK1 (Homo sapiens, UniProt O14757); settings: 1 µM, assay duplicates
Procedure: as §1, §2, §3

PKCz = PKCz (Homo sapiens, UniProt Q05513); settings: 1 µM, assay duplicates
Procedure: as §1, §2, §3

NEK6 = NEK6 (Homo sapiens, UniProt Q9HC98); settings: 1 µM, assay duplicates
Procedure: as §1, §2, §3

ERK2 = ERK2 (Homo sapiens, UniProt P28482); settings: 1 µM, assay duplicates
Procedure: as §1, §2, §3

PKCa = PKCa (Homo sapiens, UniProt P17252); settings: 1 µM, assay duplicates
Procedure: as §1, §2, §3

AMPK = settings: 1 µM, assay duplicates
Procedure: as §1, §2, §3

RSK2 = RSK2 (Homo sapiens, UniProt P51812); settings: 1 µM, assay duplicates
Procedure: as §1, §2, §3

RSK1 = RSK1 (Homo sapiens, UniProt Q15418); settings: 1 µM, assay duplicates
Procedure: as §1, §2, §3

EF2K = EF2K (Homo sapiens, UniProt O00418); settings: 1 µM, assay duplicates
Procedure: as §1, §2, §3

SRPK1 = SRPK1 (Homo sapiens, UniProt Q96SB4); settings: 1 µM, assay duplicates
Procedure: as §1, §2, §3

MELK = MELK (Homo sapiens, UniProt Q14680); settings: 1 µM, assay duplicates
Procedure: as §1, §2, §3

PIM1 = PIM1 (Homo sapiens, UniProt P11309); settings: 1 µM, assay duplicates
Procedure: as §1, §2, §3

p38d MAPK = p38d MAPK (Homo sapiens, UniProt O15264); settings: 1 µM, assay duplicates
Procedure: as §1, §2, §3

PRK2 = PRK2 (Homo sapiens, UniProt Q16513); settings: 1 µM, assay duplicates
Procedure: as §1, §2, §3

MARK3 = MARK3 (Homo sapiens, UniProt P27448); settings: 1 µM, assay duplicates
Procedure: as §1, §2, §3

S6K1 = S6K1 (Homo sapiens, UniProt P23443); settings: 1 µM, assay duplicates
Procedure: as §1, §2, §3

HIPK2 = HIPK2 (Homo sapiens, UniProt Q9H2X6); settings: 1 µM, assay duplicates
Procedure: as §1, §2, §3

JNK3 = JNK3 (Homo sapiens, UniProt P53779); settings: 1 µM, assay duplicates
Procedure: as §1, §2, §3

PAK6 = PAK6 (Homo sapiens, UniProt Q9NQU5); settings: 1 µM, assay duplicates
Procedure: as §1, §2, §3

MNK1 = MNK1 (Homo sapiens, UniProt Q9BUB5); settings: 1 µM, assay duplicates
Procedure: as §1, §2, §3

RIPK2 = RIPK2 (Homo sapiens, UniProt O43353); settings: 1 µM, assay duplicates
Procedure: as §1, §2, §3

GCK = GCK (Homo sapiens, UniProt Q12851); settings: 1 µM, assay duplicates
Procedure: as §1, §2, §3

HER4 = HER4 (Homo sapiens, UniProt Q15303); settings: 1 µM, assay duplicates
Procedure: as §1, §2, §3

Chain of VEG-FR (P17948 27-1338): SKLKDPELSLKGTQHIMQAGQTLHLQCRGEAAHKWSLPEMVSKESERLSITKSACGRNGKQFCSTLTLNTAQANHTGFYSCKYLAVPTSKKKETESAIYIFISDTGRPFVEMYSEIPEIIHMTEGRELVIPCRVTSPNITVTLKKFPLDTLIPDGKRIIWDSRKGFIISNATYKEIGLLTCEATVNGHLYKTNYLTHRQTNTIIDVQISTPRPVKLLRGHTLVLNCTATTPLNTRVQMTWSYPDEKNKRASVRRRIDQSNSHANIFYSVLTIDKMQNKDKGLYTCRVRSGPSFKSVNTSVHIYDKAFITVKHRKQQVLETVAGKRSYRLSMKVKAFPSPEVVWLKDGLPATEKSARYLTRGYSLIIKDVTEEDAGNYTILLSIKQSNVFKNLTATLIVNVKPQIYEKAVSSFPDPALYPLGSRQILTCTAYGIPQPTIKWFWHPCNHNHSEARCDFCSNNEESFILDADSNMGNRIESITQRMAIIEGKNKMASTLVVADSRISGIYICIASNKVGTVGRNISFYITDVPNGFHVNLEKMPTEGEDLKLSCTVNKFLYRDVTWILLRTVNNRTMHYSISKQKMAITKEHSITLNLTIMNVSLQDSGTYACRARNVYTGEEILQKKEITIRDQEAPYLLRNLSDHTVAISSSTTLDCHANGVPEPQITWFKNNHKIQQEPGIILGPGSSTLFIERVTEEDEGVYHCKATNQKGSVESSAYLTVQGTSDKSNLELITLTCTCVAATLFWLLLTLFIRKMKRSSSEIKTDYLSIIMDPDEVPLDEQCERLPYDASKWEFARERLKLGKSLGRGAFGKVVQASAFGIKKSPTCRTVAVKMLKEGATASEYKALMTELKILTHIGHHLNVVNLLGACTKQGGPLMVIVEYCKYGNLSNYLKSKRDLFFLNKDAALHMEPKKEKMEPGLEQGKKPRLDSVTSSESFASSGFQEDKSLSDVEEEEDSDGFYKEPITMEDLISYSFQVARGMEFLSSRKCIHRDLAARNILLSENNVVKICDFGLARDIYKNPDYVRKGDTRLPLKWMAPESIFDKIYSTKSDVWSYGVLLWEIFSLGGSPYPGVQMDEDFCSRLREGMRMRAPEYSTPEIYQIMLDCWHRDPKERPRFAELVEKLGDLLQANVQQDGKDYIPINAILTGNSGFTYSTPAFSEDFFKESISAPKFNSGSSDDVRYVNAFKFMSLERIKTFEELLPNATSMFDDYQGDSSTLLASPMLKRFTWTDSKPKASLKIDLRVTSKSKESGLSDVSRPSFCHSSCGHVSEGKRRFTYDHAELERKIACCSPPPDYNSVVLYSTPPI
Chain of TrkA (P04629 33-796): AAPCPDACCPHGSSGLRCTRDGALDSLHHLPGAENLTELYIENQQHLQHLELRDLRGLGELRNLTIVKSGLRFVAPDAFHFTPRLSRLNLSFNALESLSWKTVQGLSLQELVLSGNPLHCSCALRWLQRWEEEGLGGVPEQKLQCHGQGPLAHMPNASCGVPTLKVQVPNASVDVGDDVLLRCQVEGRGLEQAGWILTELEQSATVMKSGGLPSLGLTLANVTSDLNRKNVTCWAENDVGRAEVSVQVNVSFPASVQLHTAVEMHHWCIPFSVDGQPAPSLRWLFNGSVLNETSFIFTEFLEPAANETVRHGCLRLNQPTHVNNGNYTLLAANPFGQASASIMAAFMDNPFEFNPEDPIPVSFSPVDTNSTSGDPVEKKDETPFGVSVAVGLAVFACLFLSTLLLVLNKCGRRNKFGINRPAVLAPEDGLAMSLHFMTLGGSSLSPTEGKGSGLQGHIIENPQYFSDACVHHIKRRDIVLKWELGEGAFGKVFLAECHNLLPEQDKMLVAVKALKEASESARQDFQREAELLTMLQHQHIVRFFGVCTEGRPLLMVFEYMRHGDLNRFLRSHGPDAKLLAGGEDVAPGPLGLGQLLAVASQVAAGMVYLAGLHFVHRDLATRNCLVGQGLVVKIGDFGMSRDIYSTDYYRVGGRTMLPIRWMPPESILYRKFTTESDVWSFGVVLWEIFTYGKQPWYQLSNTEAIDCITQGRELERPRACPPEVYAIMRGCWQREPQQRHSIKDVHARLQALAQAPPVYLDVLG
Chain of ERK2 (P28482 whole entry): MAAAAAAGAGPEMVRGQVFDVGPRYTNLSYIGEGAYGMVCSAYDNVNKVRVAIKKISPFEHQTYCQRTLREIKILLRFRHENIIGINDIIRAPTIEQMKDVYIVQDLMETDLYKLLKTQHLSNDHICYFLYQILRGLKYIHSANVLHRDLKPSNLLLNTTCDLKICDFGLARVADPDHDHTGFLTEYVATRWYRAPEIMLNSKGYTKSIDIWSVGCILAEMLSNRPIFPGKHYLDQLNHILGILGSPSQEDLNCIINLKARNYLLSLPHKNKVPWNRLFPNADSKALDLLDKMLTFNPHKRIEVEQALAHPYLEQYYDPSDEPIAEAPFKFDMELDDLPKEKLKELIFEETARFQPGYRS
Chain of MARK3 (P27448 whole entry): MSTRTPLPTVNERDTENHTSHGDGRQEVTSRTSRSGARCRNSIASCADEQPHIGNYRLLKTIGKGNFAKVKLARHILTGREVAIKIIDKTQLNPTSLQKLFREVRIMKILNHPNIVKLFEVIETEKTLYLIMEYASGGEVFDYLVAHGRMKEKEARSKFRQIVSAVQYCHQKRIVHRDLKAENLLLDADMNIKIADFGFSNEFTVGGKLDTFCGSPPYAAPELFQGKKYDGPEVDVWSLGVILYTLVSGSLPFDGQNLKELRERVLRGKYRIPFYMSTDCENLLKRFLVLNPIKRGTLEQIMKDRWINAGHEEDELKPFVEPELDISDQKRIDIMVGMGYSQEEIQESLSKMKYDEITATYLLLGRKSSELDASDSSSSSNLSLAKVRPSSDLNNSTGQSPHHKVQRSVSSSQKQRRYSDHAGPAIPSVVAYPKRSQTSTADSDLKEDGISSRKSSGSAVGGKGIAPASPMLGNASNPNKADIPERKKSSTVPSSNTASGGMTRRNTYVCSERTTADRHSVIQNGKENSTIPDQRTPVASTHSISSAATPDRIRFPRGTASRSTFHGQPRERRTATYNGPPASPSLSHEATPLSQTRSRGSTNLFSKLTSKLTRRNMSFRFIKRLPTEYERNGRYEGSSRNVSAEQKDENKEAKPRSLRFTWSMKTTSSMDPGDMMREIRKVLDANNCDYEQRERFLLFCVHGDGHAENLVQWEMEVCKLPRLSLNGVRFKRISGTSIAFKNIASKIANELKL
Chain of CHK1 (O14757 whole entry): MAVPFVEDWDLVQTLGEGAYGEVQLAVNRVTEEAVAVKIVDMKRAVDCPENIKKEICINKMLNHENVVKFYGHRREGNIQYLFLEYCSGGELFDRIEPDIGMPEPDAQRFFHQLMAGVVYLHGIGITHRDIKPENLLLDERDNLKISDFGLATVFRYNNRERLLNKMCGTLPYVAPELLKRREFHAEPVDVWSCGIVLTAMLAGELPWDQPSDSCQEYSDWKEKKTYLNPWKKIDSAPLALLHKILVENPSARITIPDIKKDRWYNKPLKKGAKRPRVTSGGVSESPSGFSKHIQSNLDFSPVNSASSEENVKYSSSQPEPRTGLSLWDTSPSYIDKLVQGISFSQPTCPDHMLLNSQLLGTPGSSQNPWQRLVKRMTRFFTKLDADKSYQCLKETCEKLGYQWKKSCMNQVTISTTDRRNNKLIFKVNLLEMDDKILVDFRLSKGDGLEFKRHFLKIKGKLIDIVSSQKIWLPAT
Chain of HER4 (Q15303 26-1308): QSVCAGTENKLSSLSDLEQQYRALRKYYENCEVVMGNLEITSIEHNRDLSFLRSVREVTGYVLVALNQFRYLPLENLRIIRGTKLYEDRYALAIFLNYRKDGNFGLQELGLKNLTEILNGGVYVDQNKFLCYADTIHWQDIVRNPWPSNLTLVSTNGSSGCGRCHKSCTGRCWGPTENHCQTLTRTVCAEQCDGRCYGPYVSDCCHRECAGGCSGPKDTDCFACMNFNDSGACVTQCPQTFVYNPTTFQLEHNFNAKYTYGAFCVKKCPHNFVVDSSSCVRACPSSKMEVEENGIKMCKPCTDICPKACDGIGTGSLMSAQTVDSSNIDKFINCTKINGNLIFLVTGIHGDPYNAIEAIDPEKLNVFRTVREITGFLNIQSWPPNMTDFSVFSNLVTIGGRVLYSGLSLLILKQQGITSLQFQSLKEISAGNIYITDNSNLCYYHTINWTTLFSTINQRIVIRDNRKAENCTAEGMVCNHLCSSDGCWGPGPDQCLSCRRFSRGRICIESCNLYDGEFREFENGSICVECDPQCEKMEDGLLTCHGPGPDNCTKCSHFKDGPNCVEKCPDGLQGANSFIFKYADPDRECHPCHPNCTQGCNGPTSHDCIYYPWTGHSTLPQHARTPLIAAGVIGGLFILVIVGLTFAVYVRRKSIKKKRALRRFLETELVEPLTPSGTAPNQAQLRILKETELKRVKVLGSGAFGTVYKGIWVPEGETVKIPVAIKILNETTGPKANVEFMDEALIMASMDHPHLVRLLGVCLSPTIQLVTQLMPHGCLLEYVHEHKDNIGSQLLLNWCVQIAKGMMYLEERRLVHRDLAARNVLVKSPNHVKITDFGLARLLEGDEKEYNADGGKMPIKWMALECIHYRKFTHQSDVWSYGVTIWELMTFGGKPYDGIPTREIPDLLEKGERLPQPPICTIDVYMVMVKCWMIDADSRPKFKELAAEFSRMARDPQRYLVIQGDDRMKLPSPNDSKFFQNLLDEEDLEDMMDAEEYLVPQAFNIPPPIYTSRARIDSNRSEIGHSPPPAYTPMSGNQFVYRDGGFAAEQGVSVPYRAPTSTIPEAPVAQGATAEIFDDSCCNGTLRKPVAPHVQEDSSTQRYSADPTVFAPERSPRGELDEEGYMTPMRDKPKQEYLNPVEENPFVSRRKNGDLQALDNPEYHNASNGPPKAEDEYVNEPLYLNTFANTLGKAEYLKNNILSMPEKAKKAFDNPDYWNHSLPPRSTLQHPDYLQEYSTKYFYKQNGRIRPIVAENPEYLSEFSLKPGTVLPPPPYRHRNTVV

## Cc1nn(C)cc1-c1nc2c(-c3cnn(Cc4ccccc4)c3)c(Cl)cnc2[nH]1 [Compound 7a]
NEK2a
  NEK2a % activity remaining: 67%
HIPK3
  HIPK3 % activity remaining: 9%
EPH-A4
  EPH-A4 % activity remaining: 54%
YES1
  YES1 % activity remaining: 12%
PKA
  PKA % activity remaining: 72%
IKKe
  IKKe % activity remaining: 53%
CDK2-Cyclin A
  CDK2-Cyclin A % activity remaining: 1%
PLK1
  PLK1 % activity remaining: 75%
TrkA
  TrkA inhibition: greater than 80%
  TrkA % activity remaining: 6%
MINK1
  MINK1 % activity remaining: 28%
TAK1
  TAK1 % activity remaining: 6%
PAK5
  PAK5 % activity remaining: 36%
IGF-1R
  IGF-1R % activity remaining: 10%
CK1
  CK1 % activity remaining: 63%
VEG-FR
  VEGFR inhibition: greater than 80%
  VEG-FR % activity remaining: 6%
CAMK1
  CAMK1 % activity remaining: 87%
MKK1
  MKK1 % activity remaining: 28%
PAK4
  PAK4 % activity remaining: 23%
DYRK3
  DYRK3 % activity remaining: 25%
p38a MAPK
  p38a MAPK % activity remaining: 90%
CHK1
  CHK1 % activity remaining: 68%
PKCz
  PKCz % activity remaining: 103%
NEK6
  NEK6 % activity remaining: 64%
ERK2
  ERK2 % activity remaining: 16%
PKCa
  PKCa % activity remaining: 63%
AMPK
  AMPK % activity remaining: 50%
RSK2
  RSK2 % activity remaining: 42%
RSK1
  RSK1 % activity remaining: 25%
EF2K
  EF2K % activity remaining: 94%
SRPK1
  SRPK1 % activity remaining: 73%
MELK
  MELK % activity remaining: 19%
PIM1
  PIM1 % activity remaining: 71%
p38d MAPK
  p38d MAPK % activity remaining: 18%
PRK2
  PRK2 % activity remaining: 42%
MARK3
  MARK3 % activity remaining: 20%
S6K1
  S6K1 % activity remaining: 18%
HIPK2
  HIPK2 % activity remaining: 6%
JNK3
  JNK3 % activity remaining: 18%
PAK6
  PAK6 % activity remaining: 42%
MNK1
  MNK1 % activity remaining: 55%
RIPK2
  RIPK2 % activity remaining: 40%
GCK
  GCK % activity remaining: 22%
HER4
  HER4 % activity remaining: 89%

## Cc1cc(Cn2cc(-c3c(Cl)cnc4[nH]c(-c5cn(C)nc5C)nc34)cn2)no1 [Compound 14d]
NEK2a
  NEK2a % activity remaining: 71%
HIPK3
  HIPK3 % activity remaining: 49%
EPH-A4
  EPH-A4 % activity remaining: 51%
YES1
  YES1 % activity remaining: 18%
PKA
  PKA % activity remaining: 63%
IKKe
  IKKe % activity remaining: 3%
CDK2-Cyclin A
  CDK2-Cyclin A % activity remaining: 1%
PLK1
  PLK1 % activity remaining: 115%
TrkA
  TrkA inhibition: ≥ 80%
  TrkA % activity remaining: 15%
MINK1
  MINK1 % activity remaining: 86%
TAK1
  TAK1 % activity remaining: 18%
PAK5
  PAK5 % activity remaining: 41%
IGF-1R
  IGF-1R % activity remaining: 5%
CK1
  CK1 % activity remaining: 78%
VEG-FR
  VEGFR inhibition: ≥ 80%
  VEG-FR % activity remaining: 7%
CAMK1
  CAMK1 % activity remaining: 77%
MKK1
  MKK1 % activity remaining: 40%
PAK4
  PAK4 % activity remaining: 25%
DYRK3
  DYRK3 % activity remaining: 30%
p38a MAPK
  p38a MAPK % activity remaining: 85%
CHK1
  CHK1 % activity remaining: 52%
PKCz
  PKCz % activity remaining: 96%
NEK6
  NEK6 % activity remaining: 116%
ERK2
  ERK2 % activity remaining: 32%
PKCa
  PKCa % activity remaining: 83%
AMPK
  AMPK % activity remaining: 34%
RSK2
  RSK2 % activity remaining: 20%
RSK1
  RSK1 % activity remaining: 28%
EF2K
  EF2K % activity remaining: 102%
SRPK1
  SRPK1 % activity remaining: 31%
MELK
  MELK % activity remaining: 49%
PIM1
  PIM1 % activity remaining: 96%
p38d MAPK
  p38d MAPK % activity remaining: 41%
PRK2
  PRK2 % activity remaining: 43%
MARK3
  MARK3 % activity remaining: 19%
S6K1
  S6K1 % activity remaining: 12%
HIPK2
  HIPK2 % activity remaining: 11%
JNK3
  JNK3 % activity remaining: 62%
PAK6
  PAK6 % activity remaining: 45%
MNK1
  MNK1 % activity remaining: 64%
RIPK2
  RIPK2 % activity remaining: 49%
GCK
  GCK % activity remaining: 40%
HER4
  HER4 % activity remaining: 73%

— PMC4577729, “7-(Pyrazol-4-yl)-3H-imidazo[4,5-b]pyridine-based derivatives for kinase inhibition: Co-crystallisation studies with Aurora-A reveal distinct differences in the orientation of the pyrazole N1-substituent” (Bioorganic & Medicinal Chemistry Letters, 2015)
